According to patent publication US11279774B2, “Cyclodextrin dimers, compositions thereof, and uses thereof” (UNDERDOG PHARMACEUTICALS, INC., priority 2019, dated 2022):

What was measured:
[1] = Turbidity assay (in vitro solubility assay), 7KC suspension; assay type: physicochemical; conditions: 7KC vs cholesterol
Protocol: This single concentration of cyclodextrin is used in order to standardize the test results. To perform the test, the samples are incubated for 30 mins at 37 C, and then absorbance at 350 nm is measured, e.g., using a spectrophotometer plate reader. Relative turbidity is determined by dividing the measured turbidity in the presence of the cyclodextrin to the baseline turbidity without the cyclodextrin. A given cyclodextrin has greater affinity for 7KC than cholesterol if the relative turbidity of the 7KC suspension is lower than the relative turbidity of the cholesterol solution.

[2] = tested on: blood cells (whole blood); assay: Extraction of 7KC and cholesterol from blood cells (ex vivo whole blood, LC-MS/MS); assay type: cell-based, human; conditions: whole blood incubated 3 hours at 37C; for plasma (serum) cholesterol levels: mass spectrometry
Protocol: Blood was collected from healthy volunteers by licensed phlebotomists. The test substances or PBS alone (negative control) were added to whole blood at various concentrations and incubated for 3 hours at 37C. Blood was then spun down and serum collected. Serum was frozen and then processed for mass spec.
Plasma free 7-ketocholesterol was determined by LC-MS/MS following protein precipitation and extraction with acetonitrile and derivatization with the novel quaternary aminooxy (QAO) mass tag reagent, Amplifex Keto Reagent (AB Sciex, Framingham, Mass., USA), which has been used in the analysis of testosterone (Star-Weinstock [et al.], Analytical Chemistry, 84(21):9310-9317. (2012)).
A 50 μL sample of plasma was spiked with 0.5 ng of the internal standard, d7-7-ketocholesterol (Toronto Research Chemicals, North York, Ontario, CA) prepared at 0.1 ng/μL in ethanol. The sample was treated with 250 μL of acetonitrile, vortex mixed, centrifuged to remove protein at 12,000×g for 10 min. The supernatant was dried under vacuum and then treated with 75 μL of QAO reagent. The working reagent was prepared by mixing 0.7 mL of Amplifex keto reagent with 0.7 mL of Amplifex keto diluent to prepare a 10 mg/mL stock. This stock was then diluted 1:4 with 5% acetic acid in methanol to a final working concentration of 2.5 mg/mL. The mixture was allowed to react at room temperature for two days before LC-MS/MS analysis.
Standards of 7-ketocholesterol (Toronto Research Chemicals, North York, Ontario, CA) were prepared from 1 to 100 ng/ml in charcoal stripped plasma, SP1070, (Golden West Biological, Temecula, Calif., USA) and in phosphate buffered saline. There was residual 7-ketocholesterol detected in the stripped plasma, so the standards from PBS were used.
QAO-7-ketocholesterol derivatives were analyzed using a 4000 Q-TRAP hybrid/triple quadrupole linear ion trap mass spectrometer (SCIEX, Framingham, Mass., USA) with electrospray ionization (ESI) in positive mode. The mass spectrometer was interfaced to a Shimadzu (Columbia, Md.) SIL-20AC XR auto-sampler followed by 2 LC-20AD XR LC pumps.
The instrument was operated with the following settings: source voltage […], GS1 50, GS2 50, CUR 20, TEM 550 and CAD gas medium. Compounds were quantified with multiple reaction monitoring (MRM) and transitions optimized by infusion of pure derivatized compounds as presented in Table 1 below. The bold transitions were used for quantification.
Separation was achieved using a Gemini 3μ C6-phenyl 110 Å, 100×2 mm column (Phenomenex, Torrance, Calif., USA) kept at 35° C. using a Shimadzu (Columbia, Md.) CTO-20AC column oven. The gradient mobile phase was delivered at a flow rate of 0.5 ml/min, and consisted of two solvents, A: 0.1% formic acid in water, B: 0.1% formic acid in acetonitrile. The initial concentration of solvent B was 20% followed by a linear increase to 60% B in 10 min, then to 95% B in 0.1 min, held for 3 minutes, decreased back to starting 20% B over 0.1 min, and then held for 4 min. […]
Data were acquired using Analyst 1.6.2 (SCIEX, Framingham, Mass., USA) and analyzed with Multiquant 3.0.1 (SCIEX, Framingham, Mass., USA) software. Sample values were calculated from standard curves generated from the peak area ratio of the analyte to internal standard versus the analyte concentration that was fit to a linear equation with 1/× weighting. The lower limit of quantification was 1 ng/mL with an accuracy of 102% and precision (relative standard deviation) of 8.5%. […]

[3] = tested on: blood cells; assay: Hemolysis assay; assay type: cell-based; conditions: 7.5 mM, three hours at 37 C
Protocol: For the test solutions, the amount of PBS varied depending on the concentration of cyclodextrin being tested. Samples were tested in triplicate. 50 μL of blood was added to each sample with PBS and cyclodextrin solution (stocks also made in PBS) to achieve the appropriate concentration in a final volume of 200 ul. 5% Triton X-100 was used as the positive control and PBS was the negative control. Once all the samples were mixed the samples were placed into a 37 C incubator for three hours with agitation. The positive control was 100% hemolyzed by Triton X-100 detergent. Once the samples were out of incubation, they were diluted by the same factor in a 96 hydrograde plate and normalized to the positive control absorbance, which is around 1.1. The absorbance is read at 540 nm. The average of the samples was then corrected by subtracting the negative control. The experiment was run three times, and the error bars are the standard error of the mean (Melanga [et al.], Journal of Pharmaceutical Sciences, 105(9):2921-31. (2016)), (Kiss [et al.], European Journal of Pharmaceutical Sciences, 40(4):376-80. (2010)).

Substance: large-face butyl-linked hydroxy-propyl beta-cyclodextrin HP(βCD-BUT-βCD), DS˜3 [DS3 butyl dimer]
- specificity for 7KC over cholesterol (turbidity) [1]: affinity and specificity for 7KC
- specificity for 7KC over cholesterol (turbidity) ([1]; listed as HPβCD-butyl-DS3): greater specificity for 7KC over cholesterol

Substance: large-face butyl-linked hydroxy-propyl beta-cyclodextrin HP(βCD-BUT-βCD), DS˜8 [DS8 HPβCD dimers]
- removal of 7KC from blood cells (plasma free 7KC) [2]: removed substantial quantities of 7KC
- plasma (serum) cholesterol levels [2]: unperturbed
- plasma (serum) cholesterol levels ([2]; listed as HPβCD dimer): not perturbed
- plasma (serum) cholesterol levels ([2]; listed as HPβCD dimers (DS˜8)): does not appreciably impact plasma cholesterol levels
- removal of 7KC from blood cells (plasma free 7KC) ([2]; listed as HPβCD dimers (DS˜8)): much more efficiently than HPβCD monomers

Substance: large-face triazole-linked beta-cyclodextrin (βCD-(Triazole)1-BCD, DS=0) [CD-triazole-CD DS 0]
- specificity for 7KC over cholesterol (turbidity) [1]: specificity for 7KC over cholesterol
- hemolysis [3]: ~5%

Substance: large-face triazole-linked beta-cyclodextrin HP(βCD-Triazole-βCD) DS˜3 [HPβCD -triazole-DS3]
- specificity for 7KC over cholesterol (turbidity) [1]: greater specificity for 7KC over cholesterol
- specificity for 7KC over cholesterol (turbidity) ([1]; listed as Triazole-linked HPβCD dimer (DS˜3)): affinity and specificity for 7KC
- specificity for 7KC over cholesterol (turbidity) ([1]; listed as triazole dimers labeled DS 3): greater specificity than DS 6 or DS 7 dimers
